Where two headings read alike, the source gives them in different places.
What was measured:
Bacteroides fragilis = experiment: Expected efficacy of antibiotic agents; conditions: Gram: anaer
Clostridium difficile = experiment: Expected efficacy of antibiotic agents; conditions: Gram: anaer
Chlamydia pneumoniae = experiment: Expected efficacy of antibiotic agents; conditions: Gram: n/a
Chlamydia trachomatis = experiment: Expected efficacy of antibiotic agents; conditions: Gram: n/a
Mycoplasma pneumoniae = experiment: Expected efficacy of antibiotic agents; conditions: Gram: n/a
Bordetella pertussis = experiment: Expected efficacy of antibiotic agents; conditions: Gram: neg
Enterobacter cloacae = experiment: Expected efficacy of antibiotic agents; conditions: Gram: neg
Enterobacter sakazakii = experiment: Expected efficacy of antibiotic agents; conditions: Gram: neg
[1] = system: Haemophilus parainfluenzae; experiment: Expected efficacy of antibiotic agents; conditions: Gram: neg
[2] = system: Klebsiella (Calymmato-bacterium) granulomatis; experiment: Expected efficacy of antibiotic agents; conditions: Gram: neg
Klebsiella pneumoniae = experiment: Expected efficacy of antibiotic agents; conditions: Gram: neg
Moraxella catarrhalis = experiment: Expected efficacy of antibiotic agents; conditions: Gram: neg
Neisseria gonorrhoeae = experiment: Expected efficacy of antibiotic agents; conditions: Gram: neg
Neisseria meningitidis = experiment: Expected efficacy of antibiotic agents; conditions: Gram: neg
Proteus mirabilis = experiment: Expected efficacy of antibiotic agents; conditions: Gram: neg
Proteus vulgaris = experiment: Expected efficacy of antibiotic agents; conditions: Gram: neg
Providencia rettgeri = experiment: Expected efficacy of antibiotic agents; conditions: Gram: neg
Providencia stuartii = experiment: Expected efficacy of antibiotic agents; conditions: Gram: neg
Pseudomonas aeruginosa = experiment: Expected efficacy of antibiotic agents; conditions: Gram: neg
Serratia marcescens = experiment: Expected efficacy of antibiotic agents; conditions: Gram: neg
Vibrio cholerae = experiment: Expected efficacy of antibiotic agents; conditions: Gram: neg
Corynebacterium jeikeium = experiment: Expected efficacy of antibiotic agents; conditions: Gram: pos
[3] = system: Corynebacterium urealyticum; experiment: Expected efficacy of antibiotic agents; conditions: Gram: pos
Diphtheroids = experiment: Expected efficacy of antibiotic agents; conditions: Gram: pos
Enterococcus faecalis = experiment: Expected efficacy of antibiotic agents; conditions: Gram: pos
Enterococcus faecium = experiment: Expected efficacy of antibiotic agents; conditions: Gram: pos
[4] = system: Methicillin resistant staphaureus (MRSA); experiment: Expected efficacy of antibiotic agents; conditions: Gram: pos
Peptostreptococcus = experiment: Expected efficacy of antibiotic agents; conditions: Gram: pos
[5] = system: Staphylococcus aureus (MSSA); experiment: Expected efficacy of antibiotic agents; conditions: Gram: pos
[6] = system: Staphylococcus epidermidis; experiment: Expected efficacy of antibiotic agents; conditions: Gram: pos
Streptococcus agalactiae = experiment: Expected efficacy of antibiotic agents; conditions: Gram: pos
Streptococcus pneumoniae = experiment: Expected efficacy of antibiotic agents; conditions: Gram: pos
Streptococcus pyogenes = experiment: Expected efficacy of antibiotic agents; conditions: Gram: pos
[7] = system: Viridans group streptococci; experiment: Expected efficacy of antibiotic agents; conditions: Gram: pos
Acinetobacter baumannii = experiment: Expected efficacy of antibiotic agents; conditions: Gram: neg
[8] = system: Acinetobacter calcoaceticus; experiment: Expected efficacy of antibiotic agents; conditions: Gram: neg
Acinetobacter lwoffii = experiment: Expected efficacy of antibiotic agents; conditions: Gram: neg
Bartonella bacilliformis = experiment: Expected efficacy of antibiotic agents; conditions: Gram: neg
Campylobacter jejuni = experiment: Expected efficacy of antibiotic agents; conditions: Gram: neg
Citrobacter diversus = experiment: Expected efficacy of antibiotic agents; conditions: Gram: neg
Citrobacter freundii = experiment: Expected efficacy of antibiotic agents; conditions: Gram: neg
Enterobacter aerogenes = experiment: Expected efficacy of antibiotic agents; conditions: Gram: neg
Escherichia coli = experiment: Expected efficacy of antibiotic agents; conditions: Gram: neg
Haemophilus ducreyi = experiment: Expected efficacy of antibiotic agents; conditions: Gram: neg
Haemophilus influenzae = experiment: Expected efficacy of antibiotic agents; conditions: Gram: neg
Klebsiella oxytoca = experiment: Expected efficacy of antibiotic agents; conditions: Gram: neg
Morganella morganii = experiment: Expected efficacy of antibiotic agents; conditions: Gram: neg
Pseudomonas fluorescens = experiment: Expected efficacy of antibiotic agents; conditions: Gram: neg
Salmonella typhi = experiment: Expected efficacy of antibiotic agents; conditions: Gram: neg
Shigella boydii = experiment: Expected efficacy of antibiotic agents; conditions: Gram: neg
Shigella dysenteriae = experiment: Expected efficacy of antibiotic agents; conditions: Gram: neg
Shigella flexneri = experiment: Expected efficacy of antibiotic agents; conditions: Gram: neg
Shigella sonnei = experiment: Expected efficacy of antibiotic agents; conditions: Gram: neg

Colistimethate
Expected efficacy against Bacteroides fragilis (Bacteroides fragilis): no
Expected efficacy against Clostridium difficile (Clostridium difficile): no
Expected efficacy against Chlamydia pneumoniae (Chlamydia pneumoniae): no
Expected efficacy against Chlamydia psittaci (Chlamydia psittaci; Gram: n/a): no
Expected efficacy against Chlamydia trachomatis (Chlamydia trachomatis): no
Expected efficacy against Mycoplasma pneumoniae (Mycoplasma pneumoniae): no
Expected efficacy against Bordetella pertussis (Bordetella pertussis): no
Expected efficacy against Brucella species (Brucella species; Gram: neg): no
Expected efficacy against Enterobacter cloacae (Enterobacter cloacae): yes
Expected efficacy against Enterobacter sakazakii (Enterobacter sakazakii): yes
Expected efficacy against Haemophilus parainfluenzae [1]: no
Expected efficacy against Klebsiella (Calymmato-bacterium) granulomatis [2]: yes
Expected efficacy against Klebsiella pneumoniae (Klebsiella pneumoniae): yes
Expected efficacy against Legionella pneumophila (Legionella pneumophila; Gram: neg): no
Expected efficacy against Moraxella catarrhalis (Moraxella catarrhalis): no
Expected efficacy against Neisseria gonorrhoeae (Neisseria gonorrhoeae): no
Expected efficacy against Neisseria meningitidis (Neisseria meningitidis): no
Expected efficacy against Proteus mirabilis (Proteus mirabilis): no
Expected efficacy against Proteus vulgaris (Proteus vulgaris): no
Expected efficacy against Providencia rettgeri (Providencia rettgeri): no
Expected efficacy against Providencia stuartii (Providencia stuartii): no
Expected efficacy against Pseudomonas aeruginosa (Pseudomonas aeruginosa): yes
Expected efficacy against Serratia marcescens (Serratia marcescens): no
Expected efficacy against Vibrio cholerae (Vibrio cholerae): no
Expected efficacy against Corynebacterium jeikeium (Corynebacterium jeikeium): no
Expected efficacy against Corynebacterium urealyticum [3]: no
Expected efficacy against Diphtheroids (Diphtheroids): no
Expected efficacy against Enterococcus faecalis (Enterococcus faecalis): no
Expected efficacy against Enterococcus faecium (Enterococcus faecium): no
Expected efficacy against Methicillin resistant staphaureus (MRSA) [4]: no
Expected efficacy against Peptostreptococcus (Peptostreptococcus): no
Expected efficacy against Staphylococcus aureus (MSSA) [5]: yes
Expected efficacy against Staphylococcus epidermidis [6]: no
Expected efficacy against Streptococcus agalactiae (Streptococcus agalactiae): no
Expected efficacy against Streptococcus pneumoniae (Streptococcus pneumoniae): no
Expected efficacy against Streptococcus pyogenes (Streptococcus pyogenes): no
Expected efficacy against Viridans group streptococci [7]: no

C/C(=C\C(=O)OCCCCCCCCC(=O)O)C[C@@H]1OC[C@H](C[C@@H]2O[C@H]2[C@@H](C)[C@H](C)O)[C@@H](O)[C@H]1O [Bactroban]
Expected efficacy against Clostridium perfringens (Clostridium perfringens; Gram: anaer): no
Expected efficacy against Acinetobacter baumannii (Acinetobacter baumannii): no
Expected efficacy against Acinetobacter calcoaceticus [8]: no
Expected efficacy against Acinetobacter lwoffii (Acinetobacter lwoffii): no
Expected efficacy against Bartonella bacilliformis (Bartonella bacilliformis): no
Expected efficacy against Bordetella pertussis (Bordetella pertussis): no
Expected efficacy against Brucella species (Brucella species; Gram: neg): no
Expected efficacy against Campylobacter jejuni (Campylobacter jejuni): no
Expected efficacy against Citrobacter diversus (Citrobacter diversus): no
Expected efficacy against Citrobacter freundii (Citrobacter freundii): no
Expected efficacy against Enterobacter aerogenes (Enterobacter aerogenes): no
Expected efficacy against Enterobacter cloacae (Enterobacter cloacae): no
Expected efficacy against Enterobacter sakazakii (Enterobacter sakazakii): no
Expected efficacy against Escherichia coli (Escherichia coli): no
Expected efficacy against Francisella tularensis (Francisella tularensis; Gram: neg): no
Expected efficacy against Haemophilus ducreyi (Haemophilus ducreyi): no
Expected efficacy against Haemophilus influenzae (Haemophilus influenzae): no
Expected efficacy against Klebsiella (Calymmato-bacterium) granulomatis [2]: no
Expected efficacy against Klebsiella oxytoca (Klebsiella oxytoca): no
Expected efficacy against Klebsiella pneumoniae (Klebsiella pneumoniae): no
Expected efficacy against Legionella pneumophila (Legionella pneumophila; Gram: neg): no
Expected efficacy against Moraxella catarrhalis (Moraxella catarrhalis): no
Expected efficacy against Morganella morganii (Morganella morganii): no
Expected efficacy against Neisseria gonorrhoeae (Neisseria gonorrhoeae): no
Expected efficacy against Neisseria meningitidis (Neisseria meningitidis): no
Expected efficacy against Proteus mirabilis (Proteus mirabilis): no
Expected efficacy against Proteus vulgaris (Proteus vulgaris): no
Expected efficacy against Providencia rettgeri (Providencia rettgeri): no
Expected efficacy against Providencia stuartii (Providencia stuartii): no
Expected efficacy against Pseudomonas aeruginosa (Pseudomonas aeruginosa): no
Expected efficacy against Pseudomonas fluorescens (Pseudomonas fluorescens): no
Expected efficacy against Rickettsiae (Rickettsiae; Gram: neg): no
Expected efficacy against Salmonella typhi (Salmonella typhi): no
Expected efficacy against Serratia marcescens (Serratia marcescens): no
Expected efficacy against Shigella boydii (Shigella boydii): no
Expected efficacy against Shigella dysenteriae (Shigella dysenteriae): no
Expected efficacy against Shigella flexneri (Shigella flexneri): no
Expected efficacy against Shigella sonnei (Shigella sonnei): no
Expected efficacy against Vibrio cholerae (Vibrio cholerae): no
Expected efficacy against Yersinia pestis (Yersinia pestis; Gram: neg): no
Expected efficacy against Corynebacterium jeikeium (Corynebacterium jeikeium): no
Expected efficacy against Corynebacterium urealyticum [3]: no

CN[C@H](CC(C)C)C(=O)N[C@H]1C(=O)N[C@@H](CC(N)=O)C(=O)N[C@H]2C(=O)N[C@H]3C(=O)N[C@H](C(=O)N[C@H](C(=O)O)c4cc(O)cc(O)c4-c4cc3ccc4O)[C@H](O)c3ccc(c(Cl)c3)Oc3cc2cc(c3O[C@@H]2O[C@H](CO)[C@@H](O)[C@H](O)[C@H]2O[C@H]2C[C@](C)(N)[C@H](O)[C@H](C)O2)Oc2ccc(cc2Cl)[C@H]1O [Vancomycin]
Expected efficacy against Bacteroides fragilis (Bacteroides fragilis): no
Expected efficacy against Clostridium difficile (Clostridium difficile): yes
Expected efficacy against Clostridium perfringens (Clostridium perfringens): no
Expected efficacy against Chlamydia pneumoniae (Chlamydia pneumoniae): no
Expected efficacy against Chlamydia psittaci (Chlamydia psittaci): no
Expected efficacy against Chlamydia trachomatis (Chlamydia trachomatis): no
Expected efficacy against Mycoplasma pneumoniae (Mycoplasma pneumoniae): no
Expected efficacy against Acinetobacter baumannii (Acinetobacter baumannii): no
Expected efficacy against Acinetobacter calcoaceticus [8]: no
Expected efficacy against Acinetobacter lwoffii (Acinetobacter lwoffii): no
Expected efficacy against Bartonella bacilliformis (Bartonella bacilliformis): no
Expected efficacy against Bordetella pertussis (Bordetella pertussis): no
Expected efficacy against Brucella species (Brucella species): no
Expected efficacy against Campylobacter jejuni (Campylobacter jejuni): no
Expected efficacy against Citrobacter diversus (Citrobacter diversus): no
Expected efficacy against Citrobacter freundii (Citrobacter freundii): no
Expected efficacy against Enterobacter aerogenes (Enterobacter aerogenes): no
Expected efficacy against Enterobacter cloacae (Enterobacter cloacae): no
Expected efficacy against Enterobacter sakazakii (Enterobacter sakazakii): no
Expected efficacy against Escherichia coli (Escherichia coli): no
Expected efficacy against Francisella tularensis (Francisella tularensis): no
Expected efficacy against Haemophilus ducreyi (Haemophilus ducreyi): no
Expected efficacy against Haemophilus influenzae (Haemophilus influenzae): no
Expected efficacy against Haemophilus parainfluenzae [1]: no
Expected efficacy against Klebsiella (Calymmato-bacterium) granulomatis [2]: no
Expected efficacy against Klebsiella oxytoca (Klebsiella oxytoca): no
Expected efficacy against Klebsiella pneumoniae (Klebsiella pneumoniae): no
Expected efficacy against Legionella pneumophila (Legionella pneumophila): no
Expected efficacy against Moraxella catarrhalis (Moraxella catarrhalis): no
Expected efficacy against Morganella morganii (Morganella morganii): no
Expected efficacy against Neisseria gonorrhoeae (Neisseria gonorrhoeae): no
Expected efficacy against Neisseria meningitidis (Neisseria meningitidis): no
Expected efficacy against Proteus mirabilis (Proteus mirabilis): no
Expected efficacy against Proteus vulgaris (Proteus vulgaris): no
Expected efficacy against Providencia rettgeri (Providencia rettgeri): no
Expected efficacy against Providencia stuartii (Providencia stuartii): no
Expected efficacy against Pseudomonas aeruginosa (Pseudomonas aeruginosa): no
Expected efficacy against Pseudomonas fluorescens (Pseudomonas fluorescens): no
Expected efficacy against Rickettsiae (Rickettsiae): no
Expected efficacy against Salmonella typhi (Salmonella typhi): no
Expected efficacy against Serratia marcescens (Serratia marcescens): no
Expected efficacy against Shigella boydii (Shigella boydii): no
Expected efficacy against Shigella dysenteriae (Shigella dysenteriae): no
Expected efficacy against Shigella flexneri (Shigella flexneri): no
Expected efficacy against Shigella sonnei (Shigella sonnei): no
Expected efficacy against Vibrio cholerae (Vibrio cholerae): no
Expected efficacy against Yersinia pestis (Yersinia pestis): no
Expected efficacy against Corynebacterium jeikeium (Corynebacterium jeikeium): yes
Expected efficacy against Corynebacterium urealyticum [3]: yes
Expected efficacy against Diphtheroids (Diphtheroids): yes
Expected efficacy against Enterococcus faecium (Enterococcus faecium): yes, not VRE
Expected efficacy against Peptostreptococcus (Peptostreptococcus): yes
Expected efficacy against Staphylococcus aureus (MSSA) [5]: yes
Expected efficacy against Staphylococcus epidermidis [6]: yes
Expected efficacy against Streptococcus agalactiae (Streptococcus agalactiae): yes
Expected efficacy against Streptococcus pyogenes (Streptococcus pyogenes): yes
Expected efficacy against Viridans group streptococci [7]: yes

From patent publication US9717748B2, “Compositions and methods for treating an infection” (CMPD LICENSING, LLC, priority 2015, dated 2017)
